Test results from patent US20220306695A1, “COMPSTATIN ANALOGUES AND THEIR MEDICAL USES” (priority 2019, published 2022).
Like-named read-outs stand apart in the source and are kept apart here. Starred links: 1 amine or outer side, 2 acyl side, 3 side chain; linkers in the order of their positions; H or OH if unused. Positions of bridges follow the written chain, without caps; N, C: chain ends. Non-standard residues stand in square brackets, D forms with d. Residues, ends and D or L forms follow the SMILES beside them. Groups on a side chain read outwards from the residue. *: point of attachment. Trp(1-Me) = Cn1cc(C[C@H](N)C(=O)O)c2ccccc21; Abu(4-yl) = O=C([C@H](CC[*:3])N[*:1])[*:2]; C18 diacid = O=C(O)CCCCCCCCCCCCCCCCC(=O)*; γGlu = O=C(O)[C@H](CCC(=O)[*:2])N[*:1]; AEEA = NCCOCCOCC(=O)O; Sar = CNCC(=O)O

Legend:
in vivo = assay: in vivo; set-up: species or system Cynomolgus monkeys (Macaca fascicularis); details: male, cynomolgus monkey, sc, 1840 nmol/kg, t½
Procedure: Healthy male Cynomolgus monkeys (Macaca fascicularis) received single subcutaneous administrations of each test substance. Compounds were formulated in 20 mM phosphate adjusted with NaOH to pH 7.5 and mannitol for isotonicity and dosed at 1840 nmol/kg. Blood was collected from a femoral vein from each animal at the following times: Pre-dose, 1, 2, 4, 8, 24, 48, 72, 96 and 120 h (10 sampling times). Blood was collected into serum separation tubes and allowed to clot at room temperature. The tubes were centrifuged and resulting serum was aliquoted and snap-frozen over dry-ice and stored at nominally −80° C. until analysis. All NHP studies were performed in accordance with animal welfare laws and regulations, including approval of the study by a local ethical review process.
In order to assess pharmacokinetic half-life (t %/), serum samples isolated from non-human primates at specific time points after dosing were analysed for total drug compound after sample preparation by solid phase extraction (SPE) and liquid chromatography mass spectrometry (LC-MS/MS) using analogue internal standard. Single measurement of serum concentrations were used for calculation of the pharmacokinetic parameters using the non-compartmental approach in Phoenix WinNonlin 6.3. Plasma terminal elimination half-life (ty) was determined as In(2)/λz where λz is the magnitude of the slope of the log linear regression of the log concentration versus time profile during the terminal phase.

[1] = test system: classical complement pathway; assay: In vitro haemolysis assay (inhibition of classical complement pathway); format: cell-based, human; details: Table 3; human serum, sensitized sheep red blood cells; read-out: IC50[nM], in vitro analysis of inhibition of hemolysis
How it was run: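 Serially diluted compound (9 points) was preincubated 15 min at room temperature with diluted human serum, titrated per batch to give 70-90% maximal haemolysis, in Tris/casein buffer pH 7.4 with Mg2+/Ca2+. Antibody-sensitized sheep erythrocytes were then added for 30 min at 37° C, and the reaction was stopped with EDTA. Haemolysis was read at A405, with IC50 from 4PL fit.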

[2] = format: physicochemical; details: 50 mg/mL peptide; for Covalent oligomer content after 14 days 40° C. (%), F1 / Purity after 14 days 40° C. (%), F1: F1: 20 mM phosphate pH 5.5; for Covalent oligomer content after 14 days 40° C. (%), F1 / Covalent oligomer content after 14 days 40° C. (%), F2: denaturing SEC; for Purity after 14 days 40° C. (%), F1 / Purity after 14 days 40° C. (%), F2 / Purity after 14 days 40° C. (%), F3: normalized purity (HPLC)
Procedure: Chemical stability of compstatin analogues with cystathionine or disulfide bridge. Stability was assessed in three formulations at 50 mg/mL peptide, F1:20 mM phosphate pH 5.5, F2:20 mM phosphate pH 6.5 and F3:20 mM phosphate pH 7.5. The formulations were prepared by direct dissolution of peptide from lyophilized portions in the respective formulations. pH was adjusted to target with 1 M NaOH and 1 M HCl. Chemical stability was assessed under accelerated conditions (14 days, 40° C.) and evaluated as change in purity by reverse phase HPLC, and change in covalent oligomer content by denaturing SEC. The formulations were placed at 40° C. with analysis points at T=0, 7 and 14 days. On each time point a small volume was extracted and diluted to 2 mg/mL and tested by reverse phase HPLC and denaturing SEC. Purity was assessed by reverse phase HPLC using an Ultimate 3000 system for binary gradient application equipped with a Kinetix C18 column (cat. no. 00F-4462-Y0, 150 mm×3 mm, 2.6 μm) run at 0.5 ml/min with a gradient of buffer A (0.3% TFA, aq.) and buffer B (0.3% TFA, 90% MeCN, aq.) gradient from 40% B to 70% B over 20 min. Detection was done using a diode array detector set to 220 nm. Covalent oligomer formation was assessed by denaturing SEC (size exclusion chromatography) using an Ultimate 3000 system equipped with a TSKgel SuperSW 2000 column (cat. no. 818674, 300 mm×3 mm, 4 μm) run at 0.5 ml/min with isocratic flow of buffer A (0.1% TFA, 45% MeCN, aq.), 10 min. Detection was done using a diode array detector set to 215 nm. Compounds 126 and 156 were carefully weighed out and dissolved in formulations F1, F2 and F3 to a target concentration of 50 mg/mL. Once visually dissolved, concentration was confirmed by absorbance at 280 nm, and samples were placed in stability at 40° C. Samples for analysis were extracted on T=0, 7 and 14 days from a 40° C. climate chamber. The extracted volume was dissolved 1:25 (final concentration: 2 mg/mL) in 20 mM phosphate pH 5.5, 6.5 or 7.5 and measured by reverse phase HPLC and denaturing SEC by injection of 0.4 μL (column load […]). The resulting chromatograms were integrated to determine chemical purity by reverse phase HPLC and covalent oligomer content by denaturing SEC.

half-life (in vivo) [h]	Covalent oligomer content after 14 days 40° C. (%), F1 [2] [%]	Purity after 14 days 40° C. (%), F1 [2] [%]	Covalent oligomer content after 14 days 40° C. (%), F2 ([2]; F2: 20 mM phosphate pH 6.5) [%]	Purity after 14 days 40° C. (%), F2 ([2]; F2: 20 mM phosphate pH 6.5) [%]	Covalent oligomer content after 14 days 40° C. (%), F2 ([2]; F3: 20 mM phosphate pH 7.5) [%]	Purity after 14 days 40° C. (%), F3 ([2]; F3: 20 mM phosphate pH 7.5) [%]	Structure (SMILES)	IC50 [1] [nM]
139	80	23	66	31	48	46	CC[C@H](C)[C@@H]1NC(=O)[C@@H](NC(=O)[C@H](Cc2ccccc2)NC(=O)[C@H](CCC(=O)O)NC(=O)[C@H](CO)NC(C)=O)CSSC[C@@H](C(=O)N(C)CC(=O)N[C@@H](CCC(=O)O)C(=O)NCC(=O)N[C@@H](C)C(=O)N[C@@H](CCCCNC(=O)COCCOCCNC(=O)CC[C@H](NC(=O)COCCOCCNC(=O)CNC(=O)CC[C@H](NC(=O)CCCCCCCCCCCCCCCCC(=O)O)C(=O)O)C(=O)O)C(N)=O)NC(=O)[C@H](CCCNC(=N)N)NC(=O)[C@H](Cc2c[nH]cn2)NC(=O)[C@H](CCC(=O)O)NC(=O)CNC(=O)[C@H](Cc2c[nH]c3ccccc23)NC(=O)[C@H](CC(=O)O)NC(=O)[C@H](CCC(N)=O)NC(=O)[C@H](Cc2cn(C)c3ccccc23)NC1=O [Compound 119] (Ac-SEFCI[Trp(1-Me)]QDWGEHRC[Sar]EGAK([AEEA-γGlu-AEEA-Gly-γGlu-C18 diacid])-NH2; disulfide 4-14)	< 100
108	0.6	98	0.1	99	0.2	99	CC[C@H](C)[C@@H]1NC(=O)[C@@H](NC(=O)[C@H](Cc2ccccc2)NC(=O)[C@H](CCC(=O)O)NC(=O)[C@H](CO)NC(C)=O)CSCC[C@@H](C(=O)N(C)CC(=O)N[C@@H](CCC(=O)O)C(=O)NCCOCCOCC(=O)NCCOCCOCC(=O)N[C@@H](CCCCNC(=O)CC[C@H](NC(=O)CNC(=O)CC[C@H](NC(=O)CCCCCCCCCCCCCCCCC(=O)O)C(=O)O)C(=O)O)C(N)=O)NC(=O)[C@H](CCCNC(=N)N)NC(=O)[C@H](Cc2c[nH]cn2)NC(=O)[C@H](CCC(=O)O)NC(=O)CN(C)C(=O)[C@H](Cc2c[nH]c3ccccc23)NC(=O)[C@H](CC(=O)O)NC(=O)[C@H](CCC(N)=O)NC(=O)[C@H](Cc2cn(C)c3ccccc23)NC1=O [Compound 147, Ac-SEFA(1)I[1-Me-Trp]QDW[Sar]EHRhC(1)[Sar]E[Peg3][Peg3]-K([17-carboxy-heptadecanoyl][γGlu]G[γGlu])-NH2] (Ac-SEFCI[Trp(1-Me)]QDW[Sar]EHR[Abu(4-yl)][Sar]E[AEEA][AEEA]K([γGlu-Gly-γGlu-C18 diacid])-NH2; thioether 4-14)	< 100
120	0.7	98	0.1	100	0.1	100	CC[C@H](C)[C@@H]1NC(=O)[C@@H](NC(=O)[C@H](Cc2ccccc2)NC(=O)[C@H](CCC(=O)O)NC(=O)[C@H](CO)NC(C)=O)CSCC[C@@H](C(=O)N(C)CC(=O)N[C@@H](CCC(=O)O)C(=O)NCC(=O)N[C@@H](CCC(=O)O)C(=O)NCCOCCOCC(=O)N[C@@H](CCC(=O)O)C(=O)N[C@@H](CO)C(=O)N[C@@H](CCCCNC(=O)CC[C@H](NC(=O)CNC(=O)CC[C@H](NC(=O)CCCCCCCCCCCCCCCCC(=O)O)C(=O)O)C(=O)O)C(N)=O)NC(=O)[C@H](CCCNC(=N)N)NC(=O)[C@H](Cc2c[nH]cn2)NC(=O)[C@H](CCC(=O)O)NC(=O)CN(C)C(=O)[C@H](Cc2c[nH]c3ccccc23)NC(=O)[C@H](CC(=O)O)NC(=O)[C@H](CCC(N)=O)NC(=O)[C@H](Cc2cn(C)c3ccccc23)NC1=O [Compound 150, Ac-SEFA(1)I[1-Me-Trp]QDW[Sar]EHRhC(1)[Sar]EGE[Peg3]ES-K([17-carboxy-heptadecanoyl][γGlu]G[γGlu])-NH2] (Ac-SEFCI[Trp(1-Me)]QDW[Sar]EHR[Abu(4-yl)][Sar]EGE[AEEA]ESK([γGlu-Gly-γGlu-C18 diacid])-NH2; thioether 4-14)	< 100
143	63	50	64	37	56	45	CC[C@H](C)[C@@H]1NC(=O)[C@@H](NC(=O)[C@H](Cc2ccccc2)NC(=O)[C@H](CCC(=O)O)NC(=O)[C@H](CO)NC(C)=O)CSSC[C@@H](C(=O)N[C@H](C(=O)N[C@@H](CCC(=O)O)C(=O)NCC(=O)N[C@@H](CCC(=O)O)C(=O)NCCOCCOCC(=O)N[C@@H](CCC(=O)O)C(=O)N[C@@H](CO)C(=O)N[C@@H](CCCCNC(=O)CC[C@H](NC(=O)CCCCCCCCCCCCCCCCC(=O)O)C(=O)O)C(N)=O)[C@@H](C)O)NC(=O)[C@H](CCCNC(=N)N)NC(=O)[C@H](Cc2c[nH]cn2)NC(=O)[C@H](CCC(=O)O)NC(=O)CNC(=O)[C@H](Cc2c[nH]c3ccccc23)NC(=O)[C@H](CC(=O)O)NC(=O)[C@H](CCC(N)=O)NC(=O)[C@H](Cc2cn(C)c3ccccc23)NC1=O [Compound 142] (Ac-SEFCI[Trp(1-Me)]QDWGEHRCTEGE[AEEA]ESK([γGlu-C18 diacid])-NH2; disulfide 4-14)	< 100
